Converted amounts (≈) assume the structure as drawn. Where two headings read alike, the source gives them in different places.
Legend:
T47D = assay: Inhibition of cancer cell growth as measured by cell number, T47D; type: cell-based; conditions: Homo sapiens
A549 = assay: Inhibition of cancer cell growth as measured by cell number, A549; type: cell-based; conditions: Homo sapiens, read-out: IC50 A549
PC3 = assay: Inhibition of cancer cell growth as measured by cell number, PC3; type: cell-based; conditions: Homo sapiens, read-out: IC50 PC3
A27805 = assay: Inhibition of cancer cell growth as measured by cell number, A27805; type: cell-based; conditions: Homo sapiens, read-out: IC50 A27805
LOX = assay: Inhibition of cancer cell growth as measured by cell number, LOX; type: cell-based, human; conditions: Homo sapiens, LOX, 48 h, Table 6;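 also: LOX cells served as a line with low or absent EGFR and HER2/neu expression, in contrast to receptor-overexpressing lines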
From the text: (§1) The cell lines were chosen since they overexpressed epidermal growth factor receptor (EGFR) (i.e. A431) or HER2/neu (SKBR3), or had little to no expression of the these receptors (SW620, LOX, MCF7).

NHEK = assay: Inhibition of cell growth by incorporation of [3H]-thymidine, NHEK; type: cell-based, human; conditions: Homo sapiens, read-out: IC50 NHEK
LX1 = assay: Inhibition of cancer cell growth as measured by cell number, LX1; type: cell-based; conditions: Homo sapiens, read-out: IC50 LX1
CX1 = assay: Inhibition of cancer cell growth as measured by cell number, CX1; type: cell-based; conditions: Homo sapiens, read-out: IC50 CX1
A431 [1] = assay: Inhibition of cancer cell growth as measured by cell number, A431; type: cell-based, human; conditions: Homo sapiens, A-431, 48 h, Table 6;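 also: human A431 line, picked because it overexpresses epidermal growth factor receptor (EGFR)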
From the text: as §1

A2780DDP = assay: Inhibition of cancer cell growth as measured by cell number, A2780DDP; type: cell-based; conditions: Homo sapiens, read-out: IC50 A2780DDP
SW948 = assay: Inhibition of cancer cell growth as measured by cell number, SW948; type: cell-based; conditions: Homo sapiens, read-out: IC50 SW948
CACO2 = assay: Inhibition of cancer cell growth as measured by cell number, CACO2; type: cell-based; conditions: Homo sapiens, read-out: IC50 CACO2
CCL228 = assay: Inhibition of cancer cell growth as measured by cell number, CCL228; type: cell-based; conditions: Homo sapiens, read-out: IC50 CCL228
A431 [2] = assay: Inhibition of cell growth by incorporation of [3H]-thymidine, A431; type: cell-based, human; conditions: Homo sapiens
Method: Representative compounds of this invention were evaluated for their ability to inhibit the growth of the cell lines described below in vitro. The inhibition is quantitated by measuring the decrease in the incorporation of radio-labeled thymidine when the cells are grown in the presence of the inhibitor. […] Cells were routinely grown in a humidified incubator in 5% CO2 in air.
Cells were seeded at 10,000 cells/well in 96 well plates in complete media and allowed to grow to log phase. At this stage the complete media was replaced with media containing 0.5% FBS (for cells growing in 10% FBS) or media lacking epidermal growth factor (EGF) (for cells growing in serum free media). […] Media with test compound was then removed and complete media was added back. The cells were allowed to grow for 18 hours. This is followed by incubation in [^3H]thymidine (1mCi/ml in serum/EGF media) for 4 hours. Cells were lysed in 0.5 M NaOH for at least 30 min at 37°C and radioactivity analyzed.
The % inhibition of the compound evaluated was determined for at least three different concentrations and the IC50 value evaluated from the dose response curve. […] CPM(control) is in units of counts per minute and is a number expressing the amount of [^3H]thymidine incorporated onto the DNA when cells are grown in the absence of test compound as measured by liquid scintillation counting.

HL60 = assay: Inhibition of cancer cell growth as measured by cell number, HL60; type: cell-based; conditions: Homo sapiens, read-out: IC50 HL60
DU145 = assay: Inhibition of cancer cell growth as measured by cell number, DU145; type: cell-based; conditions: Homo sapiens, read-out: IC50 DU145
[3] = biological target: epidermal growth factor receptor kinase (Homo sapiens, UniProt P00533); assay: biochemical
Chain of epidermal growth factor receptor kinase (P00533 25-1210): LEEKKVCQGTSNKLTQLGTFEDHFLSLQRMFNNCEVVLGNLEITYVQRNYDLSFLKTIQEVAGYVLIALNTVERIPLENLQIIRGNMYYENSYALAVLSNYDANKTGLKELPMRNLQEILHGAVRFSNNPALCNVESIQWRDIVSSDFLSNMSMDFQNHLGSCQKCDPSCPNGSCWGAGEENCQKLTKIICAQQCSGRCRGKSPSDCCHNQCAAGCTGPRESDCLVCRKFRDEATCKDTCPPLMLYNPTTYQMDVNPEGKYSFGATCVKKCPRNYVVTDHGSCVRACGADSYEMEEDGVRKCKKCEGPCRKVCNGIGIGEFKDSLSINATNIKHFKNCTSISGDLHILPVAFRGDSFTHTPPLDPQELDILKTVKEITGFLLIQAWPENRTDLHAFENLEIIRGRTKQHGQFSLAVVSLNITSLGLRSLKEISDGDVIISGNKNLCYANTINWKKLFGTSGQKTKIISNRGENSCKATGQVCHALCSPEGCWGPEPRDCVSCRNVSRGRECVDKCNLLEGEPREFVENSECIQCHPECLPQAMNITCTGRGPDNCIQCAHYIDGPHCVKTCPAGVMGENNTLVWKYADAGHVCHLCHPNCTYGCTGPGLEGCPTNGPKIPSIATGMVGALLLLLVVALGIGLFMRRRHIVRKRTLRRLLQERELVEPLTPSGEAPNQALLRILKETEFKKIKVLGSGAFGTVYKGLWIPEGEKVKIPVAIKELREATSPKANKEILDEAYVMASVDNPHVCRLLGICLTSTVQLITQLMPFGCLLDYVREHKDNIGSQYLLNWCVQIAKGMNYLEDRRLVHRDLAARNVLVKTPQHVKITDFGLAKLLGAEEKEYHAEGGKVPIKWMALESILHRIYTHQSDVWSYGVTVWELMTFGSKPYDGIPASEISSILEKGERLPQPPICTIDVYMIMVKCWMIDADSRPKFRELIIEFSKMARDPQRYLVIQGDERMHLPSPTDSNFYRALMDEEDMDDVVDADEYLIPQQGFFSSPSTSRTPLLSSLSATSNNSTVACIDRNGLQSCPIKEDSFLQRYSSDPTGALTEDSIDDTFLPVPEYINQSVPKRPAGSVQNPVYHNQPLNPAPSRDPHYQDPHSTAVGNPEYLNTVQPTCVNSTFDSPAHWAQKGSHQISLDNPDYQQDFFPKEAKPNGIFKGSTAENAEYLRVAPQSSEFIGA
Method: The enzyme was obtained as a membrane extract of A431 cells (American Type Culture Collection, Rockville, MD). A431 cells were grown in T175 flasks to 80% confluency. The cells were washed twice with phosphate buffered saline (PBS) without Ca^2+. Flasks were rotated for 1.5 hours in 20 ml PBS with 1.0 mM ethylenediaminetetraacetic acid (EDTA) at room temperature and centrifuged at 600g for 10 minutes. The cells were solubilized in 1 ml per 5 x 10^6 cells of cold lysis buffer {10mM 4-(2-hydroxyethyl)-1-piperazineethane-sulfonic acid (HEPES), pH 7.6, 10 mM NaCl, 2mM EDTA, 1mM phenylmethyl-sulfonyl-fluoride (PMSF), 10 mg/ml aprotinin, 10 mg/ml leupeptin, 0.1 mM sodium orthovanadate} in a Dounce homogenizer with 10 strokes on ice. The lysate was centrifuged at 600g for 10 minutes first to clear cell debris and the supernatant further centrifuged at 100,000 g for 30 min at 4°C. The membrane pellet was suspended in 1.5 ml HNG buffer (50 mM HEPES, pH 7.6, 125 mM NaCl, 10% glycerol). The membrane extract was divided into aliquots, immediately frozen in liquid nitrogen and stored at -70°C.
Compounds to be evaluated were made into 10 mg/ml stock solutions in 100% dimethylsulfoxide (DMSO). Prior to experiment, stock solutions were diluted to 500 mM with buffer (30 mM Hepes pH 7.4) and then serially diluted to the desired concentration.
An aliquot of the A431 membrane extract (10 mg/ml) was diluted in 30 mM HEPES (pH 7.4) to give a protein concentration of 50 ug/ml. […] To this was added the ^33p-ATP (10 mCi/ml) diluted 1:10 in assay buffer along with the substrate peptide at a concentration of 0.5 mM (control reactions get no test compound) and the reaction was allowed to proceed for 30 min at 30°C. The reaction was stopped with 10% TCA and left on ice for at least 10 min after which tubes were microcentrifuged at full speed for 15 min. The a portion of the supernatants were spotted on P81 phosphocellulose discs and washed twice in 1% acetic acid then water for 5 min each followed by scintillation counting. […] The % inhibition of the test compound was determined for at least three different concentrations and the IC50 value was evaluated from the dose response curve. […] CPM(control) is in units of counts per minute and was a number expressing the amount of radiolabeled ATP (g-^33P) incorporated into the RR-SRC peptide substrate by the enzyme after 30 minutes at 30°C in the absence of test compound as measured by liquid scintillation counting. The CPM values were corrected for the background counts produced by ATP in the absence of the enzymatic reaction. The IC50 values reported in TABLE 1 are averages of the number of tests conducted.

B7474 = assay: Inhibition of cancer cell growth as measured by cell number, B7474; type: cell-based; conditions: Homo sapiens, read-out: IC50 B7474
HCT15 = assay: Inhibition of cancer cell growth as measured by cell number, HCT15; type: cell-based; conditions: Homo sapiens, read-out: IC50 HCT15
CCRF-CFM = assay: Inhibition of cancer cell growth as measured by cell number, CCRF-CFM; type: cell-based; conditions: Homo sapiens, read-out: IC50 CCRF-CFM
LS174T = assay: Inhibition of cancer cell growth as measured by cell number, LS174T; type: cell-based; conditions: Homo sapiens
SW620 = assay: Inhibition of cancer cell growth as measured by cell number, SW620; type: cell-based, human; conditions: Homo sapiens, SW-620, 48 h, Table 4;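 also: SW620 was included as a cell line with little or no EGFR or HER2/neu expression, in contrast to receptor-overexpressing lines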
From the text: as §1

MIP = assay: Inhibition of cancer cell growth as measured by cell number, MIP; type: cell-based; conditions: Homo sapiens; cell number, Sulforhodamine B, 48 hours exposure; Table 4; read-out: IC50 MIP
HTB161 = assay: Inhibition of cancer cell growth as measured by cell number, HTB161; type: cell-based; conditions: Homo sapiens, read-out: IC50 HTB161
COLO205 = assay: Inhibition of cancer cell growth as measured by cell number, COLO205; type: cell-based; conditions: Homo sapiens, COLO 205, 48 h, read-out: IC50 COLO205
SKBR3 = assay: Inhibition of cancer cell growth as measured by cell number, SKBR3; type: cell-based, human; conditions: Homo sapiens, SK-BR-3, 48 h, read-out: IC50 SKBR3, cell number, Sulforhodamine B, 48 hours exposure; Table 7;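 also: SK-BR-3 cells were selected as a line overexpressing HER2/neu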
From the text: as §1

LNCAP = assay: Inhibition of cancer cell growth as measured by cell number, LNCAP; type: cell-based; conditions: Homo sapiens, 48 h, read-out: IC50 LNCAP
[4] = biological target: recombinant human MEK 1 (MAPKK) and recombinant human ERK2 (MAPK); assay: Mitogen Activated Protein Kinase (MAPK) assay, two component coupled MEK 1 / ERK2; type: biochemical; conditions: separate entries for the same compound = evaluated more than one time;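 also: MEK 1-activated ERK2 phosphorylates MBP or Myc peptide with 33P-ATP, filter capture and scintillation counting, inhibitor preincubated with ERK2 30 min at 0 °C, inhibition relative to uninhibited control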
MCF7 = assay: Inhibition of cancer cell growth as measured by cell number, MCF7; type: cell-based, human; conditions: Homo sapiens, MCF7, 48 h, read-out: IC50 MCF7, cell number, Sulforhodamine B, 48 hours exposure; Table 5;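 also: MCF7 was included as a line with little or no EGFR or HER2/neu expression, in contrast to the receptor-overexpressing lines of the panel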
From the text: as §1

NEC = assay: Inhibition of cancer cell growth as measured by cell number, NEC; type: cell-based; conditions: Homo sapiens, 48 h, read-out: IC50 NEC
[5] = cell number, Sulforhodamine B, 48 hours exposure, Table 4

SMILES: CC(=O)Nc1ccc2ncc(C#N)c(Nc3cccc(Br)c3)c2c1 [Example 16, N-[4-[(3-Bromophenyl)amino]-3-cyano-6-quinolinyl] acetamide]
- IC50 (T47D; cell number, Sulforhodamine B, 48 hours exposure, Table 6, read-out: IC50 T47D): 6.55 mg/L (≈ 17.2 µM)
- IC50 (A549; A549, cell number, Sulforhodamine B, 48 hours exposure, Table 6): 0.214 mg/L (≈ 0.56 µM)
- IC50 (PC3; PC-3, cell number, Sulforhodamine B, 48 hours exposure, Table 7): 3.04 mg/L (≈ 7.97 µM)
- IC50 (A27805; [5]): 0.602 mg/L (≈ 1.58 µM)
- IC50 (LOX; cell number, Sulforhodamine B, 48 hours exposure, read-out: IC50 LOX): 0.316 mg/L (≈ 0.828 µM)
- IC50 (NHEK; [3H]-thymidine incorporation): 0.06 µM
- IC50 (LX1; LX-1, cell number, Sulforhodamine B, 48 hours exposure, Table 6): 0.644 mg/L (≈ 1.69 µM)
- IC50 (CX1; CX-1, cell number, Sulforhodamine B, 48 hours exposure, Table 4): 0.978 mg/L (≈ 2.56 µM)
- IC50 (A431 [1]; cell number, Sulforhodamine B, 48 hours exposure, read-out: IC50 A431): 0.766 mg/L (≈ 2.01 µM)
- IC50 (A2780DDP; [5]): 0.596 mg/L (≈ 1.56 µM)
- IC50 (SW948; SW948, cell number, Sulforhodamine B, 48 hours exposure, Table 5): 0.928 mg/L (≈ 2.44 µM)
- IC50 (CACO2; Caco-2, cell number, Sulforhodamine B, 48 hours exposure, Table 5): 0.71 mg/L (≈ 1.86 µM)
- IC50 (CCL228; cell number, Sulforhodamine B, 48 hours exposure, Table 5): 4.38 mg/L (≈ 11.5 µM)
- IC50 (A431 [2]; A-431, [3H]-thymidine incorporation, A431, read-out: IC50 A431): 1.8 µM
- IC50 (HL60; HL-60, cell number, Sulforhodamine B, 48 hours exposure, Table 7): 0.696 mg/L (≈ 1.83 µM)
- IC50 (DU145; DU-145, cell number, Sulforhodamine B, 48 hours exposure, Table 7): 0.113 mg/L (≈ 0.297 µM)
- IC50 [3]: 0.0015 µM
- IC50 (B7474; cell number, Sulforhodamine B, 48 hours exposure, Table 6): 0.899 mg/L (≈ 2.36 µM)
- IC50 (HCT15; HCT-15, cell number, Sulforhodamine B, 48 hours exposure, Table 5): 0.641 mg/L (≈ 1.68 µM)
- IC50 (CCRF-CFM; cell number, Sulforhodamine B, 48 hours exposure, Table 7): 0.729 mg/L (≈ 1.91 µM)
- IC50 (LS174T; cell number, Sulforhodamine B, 48 hours exposure, Table 5, read-out: IC50 LS174T): 0.434 mg/L (≈ 1.14 µM)
- IC50 (SW620; cell number, Sulforhodamine B, 48 hours exposure, read-out: IC50 SW620): > 100 mg/L
- IC50 (MIP): 0.534 mg/L (≈ 1.4 µM)
- IC50 (HTB161; [5]): 0.667 mg/L (≈ 1.75 µM)

SMILES: COc1cc2ncc(C#N)c(Nc3cccc(Br)c3)c2cc1N [Example 7, 6-Amino-4-[(3-bromophenyl)amino] -7-methoxy-3-quinolinecarbonitrile]
- IC50 (T47D; 48 h, read-out: IC50 T47D): 5.17 mg/L (≈ 14 µM)
- IC50 (COLO205): 4.83 mg/L (≈ 13.1 µM)
- IC50 (A549; A549, 48 h): 5.93 mg/L (≈ 16.1 µM)
- IC50 (PC3; PC-3, 48 h): 7.22 mg/L (≈ 19.6 µM)
- IC50 (SKBR3): 5.6 mg/L (≈ 15.2 µM)
- IC50 (A27805; 48 h): 4.66 mg/L (≈ 12.6 µM)
- IC50 (LOX; read-out: IC50 LOX, cell number, Sulforhodamine B, 48 hours exposure): 1.45 mg/L (≈ 3.92 µM)
- IC50 (NHEK): 4.5 µM
- IC50 (LX1; LX-1, 48 h): 6.3 mg/L (≈ 17.1 µM)
- IC50 (LNCAP): 2.19 mg/L (≈ 5.92 µM)
- IC50 (CX1; CX-1, 48 h): 4.88 mg/L (≈ 13.2 µM)
- IC50 (A431 [1]; read-out: IC50 A431, cell number, Sulforhodamine B, 48 hours exposure): 1.06 mg/L (≈ 2.86 µM)
- IC50 (A2780DDP; 48 h): 4.91 mg/L (≈ 13.3 µM)
- IC50 [4]: 25 µM
- IC50 (SW948; SW948, 48 h): 5.85 mg/L (≈ 15.9 µM)
- IC50 (CACO2; Caco-2, 48 h): 2.3 mg/L (≈ 6.22 µM)
- IC50 (CCL228; 48 h): 6.25 mg/L (≈ 16.9 µM)
- IC50 (A431 [2]; A-431, read-out: IC50 A431): > 50 µM
- IC50 (HL60; HL-60, 48 h): 2.63 mg/L (≈ 7.13 µM)
- IC50 (DU145; DU-145, 48 h): 1.09 mg/L (≈ 2.95 µM)
- IC50 (B7474; 48 h): 3.88 mg/L (≈ 10.5 µM)
- IC50 (MCF7): 5.67 mg/L (≈ 15.4 µM)
- IC50 (HCT15; HCT-15, 48 h): 3.98 mg/L (≈ 10.8 µM)
- IC50 (CCRF-CFM; 48 h): 3.44 mg/L (≈ 9.3 µM)
- IC50 (LS174T; 48 h, read-out: IC50 LS174T): 3.23 mg/L (≈ 8.75 µM)
- IC50 (SW620; read-out: IC50 SW620, cell number, Sulforhodamine B, 48 hours exposure): 5.84 mg/L (≈ 15.8 µM)
- IC50 (MIP): 2.39 mg/L (≈ 6.48 µM)
- IC50 (NEC): 5.18 mg/L (≈ 14 µM)
- IC50 (HTB161; 48 h): 2.12 mg/L (≈ 5.75 µM)

Reference: patent EP0973746B1, “SUBSTITUTED 3-CYANO QUINOLINES” (Wyeth Holdings Corporation, priority 1997, dated 1998)
